Assay results as given in patent US20100099756A1, “USES OF INCENSOLE, INCENSOLE ACETATE AND DERIVATIVES THEREOF” (YISSUM RESEARCH DEVELOPMENT COMPANY OF THE HEBREW …, priority 2006, published 2010).

Columns and labels:
closed head injury = assay: Neurological severity score (NSS) recovery after closed head injury (CHI); type: in vivo, mice; details: 50 mg/kg i.p.
Method: This effect was sustained from 24 h to 21 days following injury as determined by the Mann-Whitney test (n=9-10 per group; * p<0.01; **p<0.001, as compared to vehicle treated, at the same day). (B) Mice were subjected to the object recognition test (Example 6) 3, 7, 14 and 21 days after CHI. The absolute time spent exploring each of the two objects was recorded and the % time calculated. At baseline (bl), when presented with two identical objects, exploration time of each object was about 50% in both groups. In the test (T) situation, after one of the objects was replaced by a novel one the % time spent exploring the new object was calculated.
At 1 h after CHI, the functional status of the mice was evaluated according to a set of 10 neurobehavioral tasks (neurological severity score, NSS) that tests reflexes, alertness coordination, and motor abilities. One point was awarded for absence of reflex or failure to perform a particular task. […] Mice were equally divided to vehicle\ IA groups according to their NSS scores. Only mice with NSS>4 at 1 h after injury were included in the study. […] Recovery (ΔNSSt) was defined as the difference between NSS1h and NSS measured at any later time point and was determined at several time points up to 21 days following CHI.

rat-TRPV2 = molecular target: T1, rat-TRPV2 (Rattus norvegicus, UniProt Q9WUD2); assay: Calcium imaging of HEK293 cells transiently transfected with rat-TRPV2; type: cell-based; details: IA 100 μM
T1 construct: expressed in transfected cells; host or cells: HEK293 (transient, lipofectamine)
T1 sequence (Q9WUD2 whole entry): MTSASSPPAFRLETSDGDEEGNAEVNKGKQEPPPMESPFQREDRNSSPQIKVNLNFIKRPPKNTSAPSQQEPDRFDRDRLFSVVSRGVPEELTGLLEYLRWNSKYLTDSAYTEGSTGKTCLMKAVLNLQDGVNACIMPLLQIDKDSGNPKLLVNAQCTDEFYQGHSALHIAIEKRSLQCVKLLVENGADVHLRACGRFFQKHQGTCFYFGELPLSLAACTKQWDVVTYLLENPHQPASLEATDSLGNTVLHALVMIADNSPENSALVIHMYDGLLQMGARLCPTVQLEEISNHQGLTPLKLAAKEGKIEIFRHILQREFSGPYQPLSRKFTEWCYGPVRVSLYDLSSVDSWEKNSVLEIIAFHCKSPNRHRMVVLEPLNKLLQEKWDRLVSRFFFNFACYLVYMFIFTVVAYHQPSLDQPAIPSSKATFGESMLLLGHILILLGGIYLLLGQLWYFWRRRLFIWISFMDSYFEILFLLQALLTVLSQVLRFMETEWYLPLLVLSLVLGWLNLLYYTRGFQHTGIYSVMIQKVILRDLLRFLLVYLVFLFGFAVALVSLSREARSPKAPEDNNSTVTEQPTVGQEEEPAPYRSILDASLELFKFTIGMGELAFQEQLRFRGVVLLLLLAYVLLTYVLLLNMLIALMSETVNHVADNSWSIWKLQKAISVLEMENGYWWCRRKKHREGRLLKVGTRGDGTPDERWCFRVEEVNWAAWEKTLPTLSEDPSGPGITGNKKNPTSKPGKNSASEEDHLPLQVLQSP
Source text: All error bars indicate SEM; p values in all subfigures but c represent analysis with one-way ANOVA Bonferroni's post hoc.
HEK293 cells were transiently transfected with a rat TRPV2 plasmid using lipofectamine reagent (Invitrogen, Carlsbad, Calif.) according to manufacturer's protocol. They were then maintained in Dulbecco's modified Eagle Medium/10% fetal calf serum supplemented with Penicillin, Streptomycin, and L-glutamine. Primary keratinocytes from TRPV3-deficient and TRPV3+/+ mouse pups (day 1-4) were harvested and cultured as described previously [Chung, M. K., Lee, H., Mizuno, A., Suzuki, M. & Caterina, M. J. TRPV3 and TRPV4 mediate warmth-evoked currents in primary mouse keratinocytes. J. Biol. Chem. 279, 21569-21575 (2004)].
For single cell calcium imaging, HEK293-rat TRPV2 and HEK293-mouse TRPV3-YFP expressing cells were plated on collagen-coated glass cover slips. Cells were loaded for 60 min with 3 μM Fura-2 AM.

For CC(=O)OC1CC/C(C)=C/CC/C(C)=C/CC2(C(C)C)CCC1(C)O2 (stereo not drawn) [IA, incensole acetate], the “ΔNSS (recovery of motor ability)” value (closed head injury; 24 h after injury, P=0.002 vs vehicle) was 1.00±0.12, the “ΔNSS at subsequent time points” value (closed head injury; up to 3 weeks post injury, vs vehicle) was “significantly higher” and the “calcium influx in rat-TRPV2 transfected HEK293 cells” value (rat-TRPV2) was “did not induce calcium influx”.
